Results on 32 compounds are retold here after PubChem BioAssay AID1334 (NMMLSC, 2008).

Structures are written as SMILES.

Sequence of Cell division control protein 42 homolog (Homo sapiens) (P60953 whole entry, looked up): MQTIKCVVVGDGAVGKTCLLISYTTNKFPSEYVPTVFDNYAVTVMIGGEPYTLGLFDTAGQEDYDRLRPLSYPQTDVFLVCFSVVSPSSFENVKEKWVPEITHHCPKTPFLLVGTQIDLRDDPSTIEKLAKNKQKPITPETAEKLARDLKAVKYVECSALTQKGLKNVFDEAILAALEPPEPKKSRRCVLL

The assay addresses Cell division control protein 42 homolog (Homo sapiens) (UniProt P60953). Kind of assay: inhibition of fluorescent GTP binding to wildtype Cdc42 – biochemical, multiplex bead flow cytometry, Bodipy-FL-GTP, dose response (AID 1334).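 Also: potency of inhibiting fluorescent GTP binding to Cdc42.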 The settings on record: bead-based flow cytometry, Bodipy-FL-GTP binding to GST-Cdc42. (A flow cytometer gives signals particle by particle.)
For `NS(=O)(=O)c1ccc(N2N=C(c3ccccc3)CC2c2ccccc2)cc1` (configuration not stated), the EC50 was 8.22 µM.

Take `CCc1ccc(NS(=O)(=O)c2ccc3[nH]cc(C(=O)N4CCc5ccccc54)c(=O)c3c2)cc1`: the EC50 was 18.9 µM.

For `CCOc1ccc(/C=C2\SC(N3CCc4ccccc4C3)=NC2=O)cc1`, the EC50 was 40.5 µM.

In the case of `CC(C)C(NCc1c(Cl)cccc1Cl)C(=O)O` (configuration not stated), the EC50 is 6.4 µM.

As for `CCOC(=O)c1c(NC(=O)C(=O)N/N=C/c2ccc(O)c(OC)c2)sc2c1CCCCC2`, the EC50 is 2.87 µM.

Turning to `S=C(Nc1ccc(Oc2ccccc2)cc1)NC1CCCCC1`, the EC50 is 32.8 µM.

For the compound `CCS(=O)(=O)N1N=C(c2cccc(NS(C)(=O)=O)c2)CC1c1ccc(C)cc1` (configuration not stated), the EC50 was 2.6 µM.

Turning to `CCCc1nc2c(=O)n(C)c(=O)nc-2n(C)n1`, the EC50 was 1.33 µM.

Take `Cc1sc2nc3ccc(NCc4ccco4)nn3c(=O)c2c1C`: the EC50 was 21.5 µM.

On to `O=C(O)c1ccccc1OCc1ccccc1Br`, for which the EC50 was 0.103 µM.

As to `O=C(O)/C=C/c1cn(Cc2ccccc2)nc1-c1cccs1`, the EC50 is 3.99 µM.

As to `CCCS(=O)(=O)c1nnnn1-c1cccc(OC)c1`, the EC50 was 19.3 µM.

Regarding `CS(=O)(=O)c1ccc(C(=O)OCC(=O)NC(=O)C2CCCCC2)cc1[N+](=O)[O-]`, the EC50 is 53.1 µM.

For the compound `COc1ccc(-c2cc(C#N)nc(N3CCNCC3)n2)cc1`, the EC50 is 28.1 µM.

Regarding `N#Cc1c(-c2ccccc2)nc(SCC(=O)Nc2ccccc2)[nH]c1=O`, the EC50 was 2.1 µM.

In the case of `O=C(O)c1ccccc1Sc1ncnc2sc3c(c12)CCC3`, the EC50 is 4.38 µM.

For the compound `CC(=O)c1ccc(C#CC(=O)c2ccc([N+](=O)[O-])cc2)cc1`, the EC50 is 0.394 µM.

`Cc1nc2c(=O)n(C)c(=O)nc-2n(C)n1`: the EC50 was 1.96 µM.

Consider `Cc1cccc2cc(CN(Cc3cccs3)C(c3nnnn3C3CCCC3)C(C)C)c(=O)[nH]c12` (configuration not stated), for which the EC50 was 1.96 µM.

Take `O=C(NCc1cccs1)c1cccnc1C(=O)O`: the EC50 was 4.01 µM.

As to `Cc1cc(C)c(C)c(C(=O)c2ccccc2C(=O)O)c1C`, the EC50 was 5.95 µM.

With `COc1ccc(C2CC(c3ccccc3)=NN2c2ccc(S(N)(=O)=O)cc2)cc1` (configuration not stated), the concentration for a half-maximal effect (EC50) was 3.2 µM.

Regarding `CCCN1C(=O)/C(=C/C=C2\N(CC)c3ccccc3C2(C)C)SC1=S`, the EC50 is 5.49 µM.

`O=C(Nc1nnc(-c2ccc3c(c2)OCCO3)o1)c1ccc(Cc2ccccc2)cc1`: the EC50 is 0.355 µM.

For `CCOC(=O)c1cc([N+](=O)[O-])c([N+](=O)[O-])cc1NC(C)=O`, the EC50 is 7.19 µM.

As to `NS(=O)(=O)c1ccc(N2N=C(c3ccccc3)CC2c2cccc(F)c2)cc1` (configuration not stated), the EC50 is 4.87 µM.

With `CCC(C(=O)NC1CCCC1)N(C(=O)Cn1nnc(-c2ccc(C)o2)n1)c1cnc2ccccc2c1` (configuration not stated), the EC50 was 34.6 µM.

Turning to `CCOC(=O)Cn1nnnc1C(C(C)C)N(Cc1cccs1)Cc1cc2cc(C)ccc2[nH]c1=O` (configuration not stated), the EC50 was 7.28 µM.

`Cc1ccc(C)c(OCCn2cc(C(=O)O)c3ccccc32)c1`: the EC50 is 0.584 µM.

As for `O=C(O)c1ccccc1NCCc1ccc(Cl)cc1`, the EC50 is 1.53 µM.

As to `CCn1nc(/C=C/c2ccccc2)nc2c(=O)n(C)c(=O)nc1-2`, the EC50 is 1.55 µM.

Regarding `COC(=O)c1cccnc1SCCc1ccccc1`, the EC50 is 18.7 µM.

For orientation: EC50 means the concentration needed to bring the measured effect to its halfway point.
